Laboratory results taken from ChEMBL document CHEMBL4339246, “Iridal-Type Triterpenoids with a Cyclopentane Unit from the Rhizomes of Belamcanda chinensis” (J Nat Prod, 2019).

Experiments:
BGC-823 = assay: Cytotoxicity in human BGC823 cells assessed as reduction in cell viability incubated for 72 hrs by MTT assay; assay type: functional, cell-based; conditions: BGC-823, 72 h
BV-2 = assay: Antiinflammatory activity in mouse BV2 cells assessed as inhibition of LPS-induced nitric oxide production pretreated for 24 hrs followed by LPS-stimulation for 24 hrs by Griess assay; assay type: functional, cell-based
MCF7 = assay: Cytotoxicity in human MCF7 cells assessed as reduction in cell viability incubated for 72 hrs by MTT assay; assay type: functional, cell-based; conditions: MCF7, 72 h
HepG2 = assay: Cytotoxicity in human HepG2 cells assessed as reduction in cell viability incubated for 72 hrs by MTT assay; assay type: functional, cell-based; conditions: HepG2, 72 h
[1] = target: T1, Tyrosine-protein phosphatase non-receptor type 1 (Homo sapiens) (UniProt P18031); assay: Inhibition of recombinant human GST-tagged PTP1B expressed in expressed in Escherichia coli BL21 cells at 10 uM pre-incubated for 5 mins before pNPP substrate addition and further incubated for 30 mins relative to untreated control
T1 sequence (whole entry): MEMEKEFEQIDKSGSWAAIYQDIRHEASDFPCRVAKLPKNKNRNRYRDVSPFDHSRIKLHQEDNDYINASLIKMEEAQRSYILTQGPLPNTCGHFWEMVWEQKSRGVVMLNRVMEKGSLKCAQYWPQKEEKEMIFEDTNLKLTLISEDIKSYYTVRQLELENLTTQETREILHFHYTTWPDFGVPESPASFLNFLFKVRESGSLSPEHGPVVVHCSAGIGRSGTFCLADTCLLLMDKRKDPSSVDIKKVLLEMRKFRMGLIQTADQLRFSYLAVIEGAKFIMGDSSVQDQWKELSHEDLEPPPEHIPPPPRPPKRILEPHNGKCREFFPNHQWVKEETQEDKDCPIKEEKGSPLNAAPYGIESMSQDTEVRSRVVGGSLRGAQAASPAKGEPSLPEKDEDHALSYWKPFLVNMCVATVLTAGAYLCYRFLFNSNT

HCT-116 = assay: Cytotoxicity in human HCT116 cells assessed as reduction in cell viability incubated for 72 hrs by MTT assay; assay type: functional, cell-based; conditions: HCT-116, 72 h
A549 = assay: Cytotoxicity in human A549 cells assessed as reduction in cell viability incubated for 72 hrs by MTT assay; assay type: functional, cell-based; conditions: A549, 72 h

Row | SMILES | IC50 (BGC-823) [µM] | IC50 (BV-2) [µM] | IC50 (MCF7) [µM] | IC50 (HepG2) [µM] | inhibition [1] [%] | IC50 (HCT-116) [µM] | IC50 (A549) [µM]
1 | C=C(C)[C@H]1CC[C@@](C)(O)[C@@H]1/C=C/C(C)=C/[C@@H]1C[C@@]2([C@H](OC)O1)[C@H](CCCO)/C(=C(\C)C=O)CC[C@]2(C)O | > 10 | > 10 | > 10 | > 10 | 15.2 | > 10 | > 10
2 | C=C(C)[C@@H]1CC[C@](C)(O)[C@H]1/C=C/C(C)=C/[C@@H]1C[C@@]23[C@H](OCCC[C@@H]2/C(=C(\C)C=O)CC[C@]3(C)O)O1 | > 10 | > 10 | > 10 | > 10 | 33.4 | > 10 | > 10
3 | C=C(C)[C@H]1CC[C@@](C)(O)[C@@H]1/C=C/C(C)=C/[C@@H]1C[C@@]2([C@H](OC)O1)[C@H](CCCO)/C(=C(/C)C=O)CC[C@]2(C)O | > 10 | > 10 | > 10 | > 10 | -0.5 | > 10 | > 10
4 | C=C(C)[C@@H]1CC[C@](C)(O)[C@H]1/C=C/C(C)=C/[C@@H]1C[C@@]2([C@H](OC)O1)[C@H](CCCO)/C(=C(\C)C=O)CC[C@]2(C)O | > 10 | > 10 | > 10 | > 10 | -1.8 | > 10 | > 10
5 | C=C(C)[C@H]1CC[C@@](C)(O)[C@@H]1/C=C/C(C)=C/[C@@H]1C[C@@]23[C@H](OCCC[C@@H]2/C(=C(\C)C=O)CC[C@]3(C)O)O1 | > 10 | > 10 | > 10 | > 10 | 26.4 | > 10 | > 10
6 | C=C(C)[C@@H]1CC[C@](C)(O)[C@H]1/C=C/C(C)=C/[C@@H]1C[C@@]2([C@H](OC)O1)[C@H](CCCO)/C(=C(/C)C=O)CC[C@]2(C)O | > 10 | > 10 | > 10 | > 10 | 23.5 | > 10 | > 10
7 | C=C(C)[C@H]1CC[C@@](C)(O)[C@@H]1/C=C/C(C)=C/[C@@H]1C[C@@]2([C@H](OCC)O1)[C@H](CCCO)/C(=C(\C)C=O)CC[C@]2(C)O | > 10 | > 10 | > 10 | > 10 | 32.9 | > 10 | > 10
8 | C=C(C)[C@H]1CC[C@@](C)(O)[C@@H]1/C=C/C(C)=C/[C@@H]1C[C@@]23[C@H](OCCC[C@@H]2/C(=C(/C)C=O)CC[C@]3(C)O)O1 | > 10 | > 10 | > 10 | > 10 | 24.8 | > 10 | > 10
9 | C=C(C)[C@@H]1CC[C@](C)(O)[C@H]1/C=C/C(C)=C/[C@@H]1C[C@@]23[C@H](OCCC[C@@H]2/C(=C(/C)C=O)CC[C@]3(C)O)O1 | > 10 | > 10 | > 10 | > 10 | 16.5 | > 10 | > 10
